# Data: patent publication US7365049B2, “Afamin-containing compositions and methods of use” (Vitateg Biotechnology GmbH, priority 2001, dated 2008)
# “Also recorded” adds a separate entry of the source.
# T1: Afamin (Homo sapiens, UniProt P43652)
# T1 sequence (P43652 22-599): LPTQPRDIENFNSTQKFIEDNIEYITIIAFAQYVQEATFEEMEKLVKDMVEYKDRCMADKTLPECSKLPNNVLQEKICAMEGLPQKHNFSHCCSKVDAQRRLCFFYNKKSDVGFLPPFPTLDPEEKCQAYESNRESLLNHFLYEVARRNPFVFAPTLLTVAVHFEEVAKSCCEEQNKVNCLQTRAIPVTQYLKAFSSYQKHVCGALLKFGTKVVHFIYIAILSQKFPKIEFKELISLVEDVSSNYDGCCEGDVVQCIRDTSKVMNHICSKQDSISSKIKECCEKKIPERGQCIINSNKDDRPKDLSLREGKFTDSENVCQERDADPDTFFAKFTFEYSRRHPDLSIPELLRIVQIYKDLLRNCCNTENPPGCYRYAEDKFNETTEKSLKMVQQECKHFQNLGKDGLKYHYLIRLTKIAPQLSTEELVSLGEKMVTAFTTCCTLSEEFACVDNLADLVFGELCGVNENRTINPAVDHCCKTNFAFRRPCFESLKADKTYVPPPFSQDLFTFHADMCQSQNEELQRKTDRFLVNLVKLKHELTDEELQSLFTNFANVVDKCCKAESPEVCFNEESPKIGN
# B1: Afamin: 87 kDa protein which belongs to the albumin group; cloned and sequenced, also available in recombinant form (protein, UniProt P43652 22-599, looked up)
# Afamin: T1 sequence (P43652 22-599)
# Key:
# [1] = tested on: isolated cortical neurons of chicken embryos; test: Low serum assay (2% serum), MTT viability of isolated cortical neurons; format: cell-based; details: partial serum withdrawal to 2%, FIG. 2a
# Method: (§1) The neuroprotective effect of Afamin was examined by assaying isolated cortical neurons of chicken embryos. The effect of Afamin was tested in a low-serum assay and in two lesion assays, namely in a β-amyloid and a H2O2-lesion assay.
# (§2) After the low serum assay or the lesion assay, the MTT assay is used to check the viability of neuronal cells (MTT=3-(4,5-dimethylthiazol-2-yl)-2,5-[…]). This is a suitable model which is extremely reproducible. The test also allows for assaying a large number of samples, and dose-dependent differences in the activity of a substance can be evaluated.
# (§3) The neuronal viability of cells in vitro can be determined by means of this […] MTT test. The MTT assay is based on the metabolic reduction of MTT, a substance of yellow color, to dark-blue formazane crystals by mitochondrial dehydrogenases (e.g. succinate dehydrogenase). The crystals are dissolved, and the spectrometric absorption is measured at a suitable wave length.
# (§4) In detail, isolated cortical neurons of 8- (lesion assays) or 9- (low serum assay) day-old chicken embryos (White Leghorn or Lohman Brown Hybrid strain) were used.
# (§5) The neurons were prepared by breaking ethanoltreated eggs and putting the embryos into a plastic dish. […]
# (§6) At the end of each experiment, the viability of the cultures was tested by means of the MTT assay with a plate reader at 570 nm.
# [2] = tested on: isolated cortical neurons of chicken embryos; test: β-amyloid lesion assay, MTT viability of isolated cortical neurons; format: cell-based; details: 20 μM pre-aggregated β-amyloid peptide (Aβ25-35) for 72 hours, FIG. 2c
# Method: as §1, §2, §3, §4, §5, §6
# Afamin = target: T1, Afamin; test: Scatchard-plot analysis of the binding of vitamin E to Afamin; details: FIG. 3
# [3] = tested on: isolated cortical neurons of chicken embryos; test: H2O2-lesion assay, MTT viability of isolated cortical neurons; format: cell-based; details: 100 μM H2O2 for 24 h, FIG. 2b
# Method: After the low serum assay or the lesion assay, the MTT assay is used to check the viability of neuronal cells (MTT=3-(4,5-dimethylthiazol-2-yl)-2,5-diphenyltriazolium bromide).
# The neuronal viability of cells in vitro can be determined by means of this calorimetric MTT test. The MTT assay is based on the metabolic reduction of MTT, a substance of yellow color, to dark-blue formazane crystals by mitochondrial dehydrogenases (e.g. succinate dehydrogenase). The crystals are dissolved, and the spectrometric absorption is measured at a suitable wave length.
# The neurons were prepared by breaking ethanoltreated eggs and putting the embryos into a plastic dish. After decapitation, the hemispheres were removed and collected. Loose tissue and meningial membranes were removed, and the hemispheres were mechanically dissociated.
# 80 μl cell suspension containing 6×10^5 cells/ml nutrient medium were added to each well of the microtiter plate which already contained 80 μl of medium with or without the substances. The plates were kept at 37° C., 95% humidity and 5% CO2 without a change of media (up to 8 DIV).
# The low serum medium contains 100 ml of DEMEM with 1 g of glucose/l, 2% fetal calf serum, 0.01% Gentamycin and 2 mM L-glutamine. The nutrient medium for the lesion assays contains 100 ml of DMEM with 4.5 g of glucose/l, 5% fetal calf serum, 0.01% gentamycin and 2 mM L-glutamine.
# At DIV 8, the cells were treated with 20 μM of pre-aggregated β-amyloid peptide (Aβ25-35; Sigma) for 72 hours, or with 100 μM H2O2 for 24 h.
# [4] = tested on: glutamine synthetase (GS); test: 3-NP-induced reduction of glutamine synthetase (GS) activity in brain spheroids; format: cell-based; details: 5-day treatment with 3-NP (0.5 and 5 mM), Afamin 0.3 and 3 μg/ml without vitamin E, FIG. 1
# From the text: Because of the mechanistic and pathological similarities between 3-NP lesions and Hungington's Disease (HD), 3-NP has been proposed as an alternative HD-model. Malonate and 3-NP are inhibitors of the succinate dehydrogenase which produce an energy loss and lesions which are similar to those observed in HD. Systemic administration of 3-NP causes a progressive locomotory deterioration which corresponds to that of HD.
# After the extraction of brain spheroids and a one-week culturing, D,L-alpha-tocopherol (0.1 mM) were added to the medium. Two weeks old spheroids were plated in a plate having six wells. Shortly after the exposure, the medium was replaced by 2 ml of fresh medium. The spheroids were exposed to 3-NP (0.5 and 5 mM, pH adjusted to 7 to 8), or to the protectors vitamin E (0.1 mM), glutathione (1 mM), DTT (0.25 mM), L-NAME (N(G)-nitro-L-[…]-methylester) (0.1 mM), Afamin (without vitamin E (0.3 and 3 μg/ml) or combinations of 3-NP with the protectors for 5 days. After 2 days, freshly prepared 3-NP and protectors were added to the medium (Mathews et al., J. Neurosci, 18(1) (1998), 156-163); Borlongan et al., Neurosci Biohav. Res. 21(3) (1997), 289-293).
# The results are illustrated in FIG. 1. […] As mentioned before, this system with 3NP constitutes a recognized model for excitotoxicity and serves as a model for Huntington's Disease.
Molecule,reduction of apoptosis / neuronal cell death in low serum medium [1],reduction of damage / neuronal cell death by β-amyloid peptide [2],theoretical maximum loading of an Afamin molecule (Afamin),reduction of damage / neuronal cell death by H2O2 [3],protection of glutamine synthetase activity against inactivation by 3NP [4]
"Cc1c(C)c2c(c(C)c1O)CCC(C)(CCCC(C)CCCC(C)CCCC(C)C)O2 [vitamin E, D,L-alpha-tocopherol, reference compound]",capable of reducing the apoptosis,capable of reducing,18 molecules of vitamin E,capable of reducing,–
B1,protects against neuronal cell death; also recorded: capable of reducing the apoptosis,protects against neuronal cell death; also recorded: capable of reducing,–,protects against neuronal cell death; also recorded: capable of reducing,by far the highest effect of all the tested substances
